The values below come from patent publication US8389530B2, “Substituted quinazoline compounds” (Fovea Pharmaceuticals, priority 2008, dated 2013).

In brackets after ≈: the same amount, converted by molar mass. Where two headings read alike, the source gives them in different places.

Data set [1] can be described thus: Solubility in aqueous buffer at pH 5 (HPLC/UV). Type of data set: physicochemical. As to conditions: acetic acid/KOH buffer pH 5, stirred 24 h at room temperature; for solubility at 24 h: acetic acid/KOH buffer, pH 5, aqueous buffer, thermodynamic from solid. Here is the method:
Solubility of Compounds was determined in aqueous medium using the following procedure.
Two mg of Compound was added to 200 μl buffer (acetic acid/KOH) solution at pH 5. Solution was then stirred for 24 h at room temperature and then centrifuged 10 min at 16,000 rpm. Corresponding supernatants were analyzed by HPLC and UV detection. Calculation of a given Compound concentration was performed by reporting area under the experimental slope onto a calibration slope obtained separately using DMSO-solubilised Compound at different concentrations.

The next data set in a line: Colour of compounds. In kind it is physicochemical.
A further data set concerns Src tyrosine kinase. As to conditions: in vivo; cited from earlier work.
Data set [2] concerns VEGF-induced blood retinal barrier breakdown. Briefly: Inhibition of vascular leakage in a rabbit model of VEGF-induced blood-retinal barrier breakdown. The conditions noted are these: topical 3% (30 mg/ml) 4 times daily for four days, 48 h after intravitreal VEGF, ocular fluorophotometry. In kind it is in vivo. Here is the method: Intravitreal injection of VEGF in the rabbit eye produces massive retinal vascular leakage (Edelman and Lutz, 2003, Invest. Ophthalmol. Vis. Sci. 2003; 44:ARVO e-abstract No. 328). Based on said animal model, we investigated the efficacy of topical administration of compound 7 of the invention in reducing the retinal leakage in a VEGF-induced blood retinal barrier breakdown in the rabbit. During four days, 3% test compound 7 (30 mg/ml, 10% PEG 400, 87% labrafil) or control items without compound of the Invention were administered 4 times daily by topical administration (50 μl) in the right eye of five rabbits. On day two, animals received a single intravitreal injection of 50 μl (500 ng) recombinant human VEGF 165 (RD systems) into right eye. Forty-seven hours after the VEGF challenge (day four), fluorescein was injected via the marginal ear vein and circulate during one hour. Breakdown of the blood-retinal barrier was evaluated 48 h after VEGF challenge by measuring fluorescein contents into the vitreoretinal compartment using non-invasive scanning ocular fluorophotometry.

For data set [3] the test system is unchanged. Kind of data set: Inhibition of vascular leakage in a rat model of VEGF-induced blood-retinal barrier breakdown. In kind it is in vivo. The conditions noted are these: topical 0.51% (5.1 mg/ml) six times over 27 h after intravitreal VEGF, Evans blue. As to the method:
We investigated the efficacy of topical administration of compound II of the invention in reducing the retinal leakage in a VEGF-induced blood retinal barrier breakdown in the rat.
Rats were treated by a single intravitreal injection of 5 μl (100 ng) recombinant human VEGF164 (RD Systems) into each eye.
During twenty-seven hours following VEGF injection, 0.51% test compound II of the Invention (5.1 mg/ml buffer pH 5 with 30% cyclodextrin) and control without compound of the Invention were administered six times by topical administration (10 μl) in eyes of sixteen rats.
Twenty-seven hours later after the VEGF challenge, Evans blue dye (45 mg/kg) was injected intravenously and the dye was allowed to circulate during two hours.
Then, each rat was infused with 0.05M citrate buffer pH 3.5 (37° C.) for 2 minutes to allow clearance of the dye. Immediately after said perfusion, both eyes were enucleated and Evans blue dye was extracted by incubating each retina in formamide (Qaum et al Invest. Ophthalmol. Vis. Sci. 2001, Vol 42, No 10). Afterward, the absorbance was measured with a spectrophotometer at 620 nm.
Breakdown of blood-retinal barrier was proportional to the concentration of Evans blue in the retina normalized by Evans blue concentrations in the plasma.

As to `Cc1cccc(C)c1-c1ccc2nc(Nc3ccc(OCCN4CCCC4)cc3)ncc2c1` [6 Chlorhydrate, [6-(2,6-Dimethyl-phenyl)-quinazolin-2-yl]-[4-(2-pyrrolidin-1-yl-ethoxy)-phenyl]-amine], in data set [1], the “Solubility (pH 5) in %” value worked out at 0.09% and the solubility at 24 h amounted to 900 µg/mL. Also, in the data set “Colour of compounds”, the Colour result is on record as “Pale yellow”.
For `Oc1ccc(Cl)c(-c2ccc3nc(Nc4ccc(OCCN5CCCC5)cc4)ncc3c2)c1` [7 base form, 4-Chloro-3-{2-[4-(2-pyrrolidin-1-yl-ethoxy)-phenylamino]-quinazolin-6-yl}-phenol], in that order: 0.03%, 340 µg/mL (≈ 738 µM) and “Yellow”.
Turning to `Cc1cccc(C)c1-c1ccc2nc(Nc3ccc(OCCN4CCC[C@@H]4C(=O)O)cc3)ncc2c1` [8 Chlorhydrate, (R)-1-(2-{4-[6-(2,6-Dimethyl-phenyl)-quinazolin-2-ylamino]-phenoxy}-ethyl)-pyrrolidine-2-carboxylic acid], in data set [1], the “Solubility (pH 5) in %” value worked out at 1% and the “Solubility (pH 5) in mg/ml” value was 10 mg/ml. Besides, in the data set “Colour of compounds”, the Colour result was “Pale yellow”.
With `Cc1cccc(C)c1-c1ccc2nc(Nc3ccc(N4CCN(CCN5CCCC5)C4=O)cc3)ncc2c1` [9 Chlorhydrate, 1-{4-[6-(2,6-Dimethyl-phenyl)-quinazolin-2-ylamino]-phenyl}-3-(2-pyrrolidin-1-yl-ethyl)-imidazolidin-2-one], in data set [1], the “Solubility (pH 5) in %” value was determined as 0.35% and the solubility at 24 h is 3500 µg/mL. The Colour entry in “Colour of compounds” was “Pale yellow”.
In the case of `O=C1N(CCN2CCCC2)CCN1c1ccc(Nc2ncc3cc(-c4cc(O)ccc4Cl)ccc3n2)cc1` [12 Chlorhydrate, 1-{4-[6-(2-Chloro-5-hydroxy-phenyl)-quinazolin-2-ylamino]-phenyl}-3-(2-pyrrolidin-1-yl-ethyl)-imidazolidin-2-one], in data set [1], the “Solubility (pH 5) in %” value was determined as 0.45% and the solubility at 24 h came to 4500 µg/mL. The Colour entry in “Colour of compounds” is “Pale yellow”.
`CN(C)[C@@H]1CCN(C(=O)COc2ccc(Nc3ncc4cc(-c5cc(O)ccc5Cl)ccc4n3)cc2)C1` [13 base form]: in data set [1], the “Solubility (pH 5) in %” value was 0.03% and the “Solubility (pH 5) in mg/ml” value was determined as 0.29 mg/ml. Further, in “Colour of compounds”, the Colour result was “Pale green”.
Regarding `Cc1cc(-c2cc(O)ccc2Cl)cc2cnc(Nc3ccc(OCCN4CCCC4)cc3)nc12.Cl` [Compound 18, 1-(2-{4-[6-(2-Chloro-5-hydroxy-phenyl)-8-methyl-quinazolin-2-ylamino]-phenoxy}-ethyl)-pyrrolidinium; chloride], in data set [1], the “Solubility (pH 5) in %” value is recorded as 0.67% and the solubility at 24 h came out at 6700 µg/mL. In addition, the Colour entry in the data set “Colour of compounds” is given as “Pale yellow”.
Take `Cc1ccc(-c2nn(C(C)(C)C)c3ncnc(N)c23)cc1` [PP1]: in the data set with Src tyrosine kinase, the “breakdown of the brain-blood barrier (BBB)” value is on record as “decrease breakdown of the brain-blood barrier (BBB)”, the “expression of VEGF” value is “reduce expression of VEGF” and the oedema entry is given as “decrease oedema”.
As to `Cl.Oc1ccc(Cl)c(-c2ccc3nc(Nc4ccc(OCCN5CCCC5)cc4)ncc3c2)c1` [compound 7, 4-Chloro-3-{2-[4-(2-pyrrolidin-1-yl-ethoxy)-phenylamino]-quinazolin-6-yl}-phenol; hydrochloride], in data set [1], the “Solubility (pH 5) in %” value is listed as 0.19% and the solubility at 24 h is 1900 µg/mL. Moreover, the Colour result in the data set “Colour of compounds” is reported as “Pale yellow”. Moreover, the “reduction of vascular leakage compared to control” value in data set [2] worked out at 41%.
For the compound `Cc1cccc(C)c1-c1ccc2nc(Nc3ccc(OCCN4CCC[C@@H]4C(=O)O)cc3)ncc2c1` [compound 8, (R)-1-(2-{4-[6-(2,6-Dimethyl-phenyl)-quinazolin-2-ylamino]-phenoxy}-ethyl)-pyrrolidine-2-carboxylic acid], in data set [1] (listed as 8 base form), the “Solubility (pH 5) in %” value is listed as 0.04% and the “Solubility (pH 5) in mg/ml” value was 0.4 mg/ml. Further, the Colour entry in the data set “Colour of compounds” (listed as 8 base form) was “Orange”.
`Cc1cccc(C)c1-c1ccc2nc(Nc3ccc(N4CCN(C(=O)c5ccncc5)CC4)cc3)ncc2c1` [compound 11, (4-{4-[6-(2,6-Dimethyl-phenyl)-quinazolin-2-ylamino]-phenyl}-piperazin-1-yl)-pyridin-4-yl-methanone]: the “reduction of vascular leakage compared to control” value in data set [3] turned out to be 56%.
As to `Cc1cccc(C)c1-c1ccc2nc(Nc3ccc(OCC(=O)N4CC[C@@H](N(C)C)C4)cc3)ncc2c1` [compound 14, 1-((R)-3-Dimethylamino-pyrrolidin-1-yl)-2-{4-[6-(2,6-dimethyl-phenyl)-quinazolin-2-ylamino]-phenoxy}-ethanone], in data set [1], the “Solubility (pH 5) in %” value was 0.01% and the solubility at 24 h is 140 µg/mL (≈ 282 µM). Besides, in the data set “Colour of compounds”, the Colour entry is reported as “Pale yellow”.
For `Oc1ccc(Cl)c(-c2ccc3nc(Nc4ccc(OCCN5CCCCCC5)cc4)ncc3c2)c1` [compound 16, 3-{2-[4-(2-Azepan-1-yl-ethoxy)-phenylamino]-quinazolin-6-yl}-4-chloro-phenol], in that order: 0.05%, 500 µg/mL (≈ 1020 µM) and “Pale yellow”.
`Cc1cccc(C)c1-c1ccc2nc(Nc3ccc(N4CCNCC4)cc3)ncc2c1` [compound 17, [6-(2,6-Dimethyl-phenyl)-quinazolin-2-yl]-(4-piperazin-1-yl-phenyl)-amine]: in data set [1], the “Solubility (pH 5) in %” value is recorded as 0.63% and the solubility at 24 h turned out to be 6300 µg/mL (≈ 15400 µM). Besides, the Colour entry in the data set “Colour of compounds” is “brown”.

The solubility is the dissolved amount per volume that the medium holds. Higher therefore signals much dissolved substance.
